Measured values taken from ChEMBL document CHEMBL4043145, “Pyridine-pyrimidine amides that prevent HGF-induced epithelial scattering by two distinct mechanisms” (Bioorg Med Chem Lett, 2017).

Columns and labels:
PC-3 [1] = assay: Cell cycle arrest in human p53-null PC3 cells assessed as accumulation at G2/M phase at 1000 nM (reference value: 18.37 to 18.96%); assay type: functional
MFE-280 [2] = assay: Cell cycle arrest in human MFE280 cells assessed as accumulation at G2/M phase at 100 nM (reference value: 16.43 to 17.9%); assay type: functional
T47D [3] = assay: Cell cycle arrest in human T47D cells assessed as accumulation at G2/M phase at 100 nM (reference value: 20.58 to 28.8%); assay type: functional
MFE-296 = assay: Cell cycle arrest in human MFE296 cells assessed as accumulation at G2/M phase at 1000 nM (reference value: 15.71 to 17.04%); assay type: functional
MCF7 [4] = assay: Cell cycle arrest in human MCF7 cells assessed as accumulation at S phase at 1000 nM (reference value: 25.36 to 26.82%); assay type: functional
PC-3 [5] = assay: Cell cycle arrest in human p53-null PC3 cells assessed as accumulation at G1 phase at 1000 nM (reference value: 50.77 to 51.16%); assay type: functional
A2780 [6] = assay: Cell cycle arrest in human A2780 cells assessed as accumulation at G1 phase at 300 nM (reference value: 55.26 to 55.66%); assay type: functional
PC-3 [7] = assay: Cell cycle arrest in human p53-null PC3 cells assessed as accumulation at G2/M phase at 300 nM (reference value: 18.37 to 18.96%); assay type: functional
MCF7 [8] = assay: Cell cycle arrest in human MCF7 cells assessed as accumulation at G1 phase at 300 nM (reference value: 47.47 to 52.3%); assay type: functional
MFE-280 [9] = assay: Cell cycle arrest in human MFE280 cells assessed as accumulation at G1 phase at 100 nM (reference value: 64.99 to 67.86%); assay type: functional
MCF7 [10] = assay: Cell cycle arrest in human MCF7 cells assessed as accumulation at G1 phase at 1000 nM (reference value: 47.47 to 52.3%); assay type: functional
T47D [11] = assay: Cell cycle arrest in human T47D cells assessed as accumulation at G1 phase at 100 nM (reference value: 45.5 to 57.8%); assay type: functional
MCF7 [12] = assay: Antiproliferative activity against human MCF7 cells at 10 uM relative to control; assay type: functional, cell-based
MFE-280 [13] = assay: Induction of apoptosis in human MFE280 cells assessed as late apoptotic cells at 1000 nM by 7-AAD/Annexin staining-based assay (reference value: 6 to 7.4%); assay type: functional
T47D [14] = assay: Cell cycle arrest in human T47D cells assessed as accumulation at S phase at 300 nM (reference value: 19.89 to 24.55%); assay type: functional
MCF7 [15] = assay: Cell cycle arrest in human MCF7 cells assessed as accumulation at G2/M phase at 1000 nM (reference value: 20.06 to 22.33%); assay type: functional
A2780 [16] = assay: Cell cycle arrest in human A2780 cells assessed as accumulation at S phase at 300 nM (reference value: 21.16 to 22.81%); assay type: functional
MFE-280 [17] = assay: Cell cycle arrest in human MFE280 cells assessed as accumulation at G2/M phase at 300 nM (reference value: 16.43 to 17.9%); assay type: functional
T47D [18] = assay: Cell cycle arrest in human T47D cells assessed as accumulation at G2/M phase at 1000 nM (reference value: 20.58 to 28.8%); assay type: functional

`O=C(Nc1ccc(-c2cccc(Cl)c2)cn1)c1cncnc1` was tested, and the Activity (PC-3 [1]) was 76.06%, the Activity (MFE-280 [2]) was 18.95% and the Activity (T47D [3]) was 19.68%. It also gave an Activity (MFE-296) of 72.12%, an Activity (MCF7 [4]) of 16.61% and an Activity (PC-3 [5]) of 5.07%. It also gave an Activity (A2780 [6]) of 24.74%, an Activity (PC-3 [7]) of 60.72% and an Activity (MCF7 [8]) of 16.22%. For the same compound, the Activity (MFE-280 [9]) was 61.48%, the Activity (MCF7 [10]) was 8.04% and the Activity (T47D [11]) was 54.23%. The EC50 (MCF7 [12]) was 29 nM, the Activity (MFE-280 [13]) was 8.4% and the Activity (T47D [14]) was 27.41%. It also gave an Activity (MCF7 [15]) of 63.38%, an Activity (A2780 [16]) of 22.35% and an Activity (MFE-280 [17]) of 37.86%. For the same compound, the Activity (T47D [18]) was 43.07%.
